Results from PubChem BioAssay AID488818 (NMMLSC, 2010).
Activity calls are given as the source filed them.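 The calls were made as follows: active = fluorescence change from solvent-only control to top dose above 25; inactive = the rest.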

Tested on: S. cerevisiae s288c autofluorescence, flow cytometry MCF, 3 h
Assay: fluorescence artefact check, untagged yeast strain – cherry pick 3, multiplex, flow cytometry, artefact control for yeast TOR pathway GFP screen, SAR follow-up (AID 488818)
Settings: at 33.3 µM; active compounds read high

| fluorescence change | Structure (SMILES) |
| --- | --- |
| 0.08 (inactive) | CNc1nc(N)c([N+](=O)[O-])c(Nc2ccccc2OC)n1 |
| 0.12 (inactive) | Nc1ncnc(Nc2cc(Cl)cc(Cl)c2)c1[N+](=O)[O-] |
| 0.06 (inactive) | COCCCNc1nc(N)c([N+](=O)[O-])c(Nc2ccccc2OC)n1 |
| 0.06 (inactive) | CNc1nc(C)c([N+](=O)[O-])c(Nc2ccc(OC)cc2)n1 |
| 0.12 (inactive) | N#Cc1c(N)nc(N)nc1Nc1ccc(Br)cc1 |
| 0.12 (inactive) | Cc1cccc(C)c1Nc1ncnc(N)c1[N+](=O)[O-] |
| 0.08 (inactive) | CNc1nc(N)c([N+](=O)[O-])c(Nc2cccc(Cl)c2)n1 |
| 0.06 (inactive) | CCC(C)Nc1nc(N)c([N+](=O)[O-])c(Nc2ccccc2OC)n1 (stereo unspecified) |
| 0 (inactive) | Cc1ccc2c(C)ccc(O)c2n1 |
| 0.18 (inactive) | O=C(O)c1ccc2cccc(O)c2n1 |
| 0 (inactive) | Cc1nc(Nc2ccc(Br)cc2Br)c([N+](=O)[O-])c(=O)[nH]1 |
| 0.19 (inactive) | COc1ccccc1Nc1nc(NCCO)nc(N)c1[N+](=O)[O-] |
| 0.06 (inactive) | COc1ccc(Nc2nc(NN)nc(C)c2[N+](=O)[O-])cc1 |
| 0.12 (inactive) | Nc1nc(NCCOCCO)nc(Nc2cccc(F)c2)c1[N+](=O)[O-] |
| 0.18 (inactive) | COCCNc1nc(N)c([N+](=O)[O-])c(Nc2ccc(F)cc2)n1 |
| 0.8 (inactive) | CCC(C)Nc1nc(N)c([N+](=O)[O-])c(Nc2cc(OC)ccc2OC)n1 (stereo unspecified) |
| 0.12 (inactive) | COc1ccc(OC)c(Nc2nc(NCCC(C)C)nc(N)c2[N+](=O)[O-])c1 |
| 0.65 (inactive) | Cc1ccc(NN2C(=O)C=C(c3ccccc3)C2=O)cc1 |
| 0.07 (inactive) | COc1ccccc1Nc1nc(NCCC(C)C)nc(N)c1[N+](=O)[O-] |

Further lines, the compound ahead of its results:

| Structure (SMILES) | fluorescence change |
| --- | --- |
| Cc1nc2c(O)cccc2cc1CO | 0.06 (inactive) |
| Cn1cccc1C(=O)Nc1nc(-c2ccccn2)cs1 | 0.3 (inactive) |
| COc1ccc(OC)c2c(=O)cc(C(=O)O)[nH]c12 | 0.06 (inactive) |
| Cc1ccc(C(=O)Nc2nc(-c3ccccn3)cs2)o1 | 0.24 (inactive) |
| CCOC(=O)CS(=O)(=O)c1nc(-c2ccccc2)cc(C(F)(F)F)n1 | 0.24 (inactive) |
| COCC(C)NC(=O)CCS(=O)(=O)c1nc(-c2ccc(OC)cc2)cc(C(F)(F)F)n1 (stereo unspecified) | 0.12 (inactive) |
| CCCOCc1ccc(O)c2ncccc12 | 0.25 (inactive) |
| O=C(O)c1ccc2cccnc2c1O | 0.12 (inactive) |
| CCc1sc(C(=O)Nc2nc(-c3ccccn3)cs2)cc1C | 0.65 (inactive) |
| Cc1ccc2c(Cl)cc(Cl)c(O)c2n1 | 0.81 (inactive) |
| Oc1c(Br)cc(Br)c2cccnc12 | 3.5 (inactive) |
| COc1ccccc1-c1cc(C(F)(F)F)nc(S(=O)(=O)CCCC(=O)O)n1 | 0.5 (inactive) |
| COc1cccc2c(Cl)c(CCCl)c(C)nc12 | 0.24 (inactive) |
| Oc1ccc(Cl)c2cccnc12 | 0.19 (inactive) |
| CC(=O)NC(C)c1cc(Cl)c2cccnc2c1O (stereo unspecified) | 0.25 (inactive) |
| NC(=O)c1ccnc2c(O)cccc12 | 0.06 (inactive) |
| CC1=NNC(=O)/C1=C\c1cn(-c2ccccc2)nc1-c1ccc(F)cc1 | 0.24 (inactive) |
| Oc1c(I)cc(Cl)c2cccnc12 | 2.85 (inactive) |
| Oc1ccc(F)c2cccnc12 | 0.06 (inactive) |
| Oc1c(Cl)cc(Cl)c2cccnc12 | 2.85 (inactive) |
| O=C(Nc1nc(-c2ccccn2)cs1)c1ccccc1-n1cnnn1 | 0.07 (inactive) |
| COc1ccccc1-c1cc(C(F)(F)F)nc(S(=O)(=O)CCCC(=O)NC(C)C)n1 | 0.18 (inactive) |
